For series [1] the following is noted: ref 77 (4AP), ref 78 (4DMP), ref 79 (PPZ); cited from earlier work.
The conditions of series [2]: pKa (base) – pKa (acid); for ΔpKa for MEL: hydroxyl group of MEL; for ΔpKa for PRM: hydroxyl group of PRM.
The conditions of series [3]: cited from earlier work.
The conditions of series [4]: pH 7.4; cited from earlier work.
For series [5] the following is noted: cited from earlier work. The source holds these as a separate data set.
A short description of the next series: physchem. The note with it: pH 6.5. The method, then:
Solubility experiments were conducted in sodium phosphate buffer solutions at pH 6.5 and 37 °C to simulate intestinal physiological conditions. For each experiment, an excess crystalline solid was sieved through a 300 μm sieve and introduced into a flask with a screw top containing 100 mL of the medium. The solution was stirred at 200 rpm using a magnetic stir bar for 48 h to reach the equilibrium state. […] After each sampling, the volume of the liquid removed from the suspension was not compensated. The withdrawn suspension was filtered through 0.2 μm nylon filters and diluted prior to high-performance liquid chromatography (HPLC) analysis. The solubility experiment for each crystal form was repeated in triplicate. After the last sample collection, the remaining solid material in the suspension was filtered, dried, and characterized by IR and PXRD.
A C18 HPLC column (YMC-Pack ODS-A column, 4.6 mm × 250 mm, 5 μm) with a flow rate of 1 mL min^–1 was employed, and the column temperature was set at 25 °C. The binary mobile phase consisted of acetonitrile and sodium phosphate buffer (pH 6.5) in a volume ratio of 25:75. The samples were diluted appropriately with the mobile phase, and the absorbance was measured at 347 nm.

The text below walks through data of article PMC9933440 (Crystal Growth & Design, 2022).

Regarding `Nc1ccncc1` [4AP, 4-aminopyridine], the “pKa in water (salt former)” value in series [1] was 9.17[77]. In series [2], the “ΔpKa for MEL” value is on record as 8.08 and the “ΔpKa for PRM” value was found to be 7.31.

For the compound `CN(C)c1ccncc1` [4DMP, 4-dimethylaminopyridine], in series [2], the “ΔpKa for MEL” value was determined as 8.61 and the “ΔpKa for PRM” value is recorded as 7.84.

In the case of `CC(=O)Oc1ccccc1C(=O)O.Cc1cnc(NC(=O)C2=C(O)c3ccccc3S(=O)(=O)N2C)s1` [MEL Aspirin], the “bioavailability vs parent API (fold)” value in series [3] is recorded as 4.4 x. Further, the “solubility vs parent API (fold)” value in series [4] is on record as 44 x.

For the compound `Cc1cnc(NC(=O)C2=C(O)c3ccccc3S(=O)(=O)N2C)s1` [MEL, meloxicam], in series [5] (pH <3), the “degradation at lower pH” value is recorded as “significant degradation”. In addition, the “time to highest solubility / maximum dissolved concentration / equilibrium” value in the series “physchem” was found to be 90 min.

In the case of `CN1C(C(=O)Nc2ccccn2)=C(O)c2ccccc2S1(=O)=O.NS(=O)(=O)c1cc(C(=O)O)c(NCc2ccco2)cc1Cl` [PRM furosemide], in series [5], the “stability under accelerated aging” value is recorded as “good stability under accelerated aging” and the thermal stability result is on record as “good thermal stability”.
